Test results from ChEMBL document CHEMBL1145220, “Design and synthesis of highly active Alzheimer's beta-secretase (BACE1) inhibitors, KMI-420 and KMI-429, with enhanced chemical stability” (Bioorg Med Chem Lett, 2005).
Numbered stars: 1 amine (or outer) side, 2 acyl side, 3 side chain; on linkers, the order of the positions; unused ones are H or OH. Square brackets hold non-standard residues; d marks the D form. Peptide text beside a SMILES is read from it. * marks the point of attachment. β3hPhe(2R-OH) = O=C([C@H](O)[C@H](Cc1ccccc1)N[*:1])[*:2]; Tetrazole5carbonyl = O=C(c1nn[nH]n1)*; Oxalyl = O=C(C(=O)[*:2])[*:1]; Dap = NC[C@H](N)C(=O)O

Key:
Beta-secretase 1 [1] = biological target: T1, Beta-secretase 1 (Homo sapiens, UniProt P56817); experiment: Inhibitory activity against beta-secretase 1 (BACE1) at 2 uM
Beta-secretase 1 [2] = biological target: T1, Beta-secretase 1; experiment: Inhibitory activity against beta-secretase 1 (BACE1)
Beta-secretase 1 [3] = biological target: T1, Beta-secretase 1; experiment: Inhibitory activity against beta-secretase 1 (BACE1) at 0.2 uM

T1 sequence (P56817 whole entry): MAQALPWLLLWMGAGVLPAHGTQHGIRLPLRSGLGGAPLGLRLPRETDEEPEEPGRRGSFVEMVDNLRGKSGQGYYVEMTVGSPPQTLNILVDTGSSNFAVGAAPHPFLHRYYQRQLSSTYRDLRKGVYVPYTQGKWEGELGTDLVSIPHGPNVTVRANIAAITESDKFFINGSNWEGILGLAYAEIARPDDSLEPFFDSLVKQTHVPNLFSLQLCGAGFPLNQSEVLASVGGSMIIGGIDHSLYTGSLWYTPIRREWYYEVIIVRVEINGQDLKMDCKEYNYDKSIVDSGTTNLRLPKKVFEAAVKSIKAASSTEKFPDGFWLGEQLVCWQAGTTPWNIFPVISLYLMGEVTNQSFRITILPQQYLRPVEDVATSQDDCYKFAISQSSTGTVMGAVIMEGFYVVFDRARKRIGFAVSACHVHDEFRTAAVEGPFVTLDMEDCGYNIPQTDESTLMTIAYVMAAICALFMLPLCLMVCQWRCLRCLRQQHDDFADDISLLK

| inhibition (Beta-secretase 1 [1]) [%] | inhibition (Beta-secretase 1 [3]) [%] | SMILES | IC50 (Beta-secretase 1 [2]) [nM] |
| --- | --- | --- | --- |
| 0 |  | CC(C)C[C@H](NC(=O)[C@@H](NC(=O)[C@H](CN)NC(=O)c1nn[nH]n1)C(C)C)C(=O)N[C@@H](Cc1ccccc1)[C@@H](O)C(=O)Nc1cccc(C(=O)O)c1 |  |
| 23.2 |  | CC(C)C[C@H](NC(=O)[C@@H](NC(=O)[C@H](CN)NC(=O)c1nn[nH]n1)C(C)C)C(=O)N[C@@H](Cc1ccccc1)[C@@H](O)C(=O)N[C@@H](CC(=O)O)C(=O)N[C@@H](C)C(=O)N[C@@H](CCC(=O)O)C(=O)O (Tetrazole5carbonyl-[Dap]VL[β3hPhe(2R-OH)]DAE-OH) |  |
| 99 | 87.1 | CC(C)C[C@H](NC(=O)[C@@H](NC(=O)[C@@H](N)CNC(=O)c1nn[nH]n1)C(C)C)C(=O)N[C@@H](Cc1ccccc1)[C@@H](O)C(=O)Nc1cccc(C(=O)O)c1 |  |
|  |  | CC(C)C[C@H](NC(=O)[C@@H](NC(=O)[C@@H](N)CNC(=O)c1nnn[nH]1)C(C)C)C(=O)N[C@@H](Cc1ccccc1)[C@@H](O)C(=O)Nc1cccc(C(=O)O)c1 | 8.2 |
| 87.9 | 58.6 | CC(C)C[C@H](NC(=O)[C@@H](NC(=O)[C@H](CN)NC(=O)C(=O)O)C(C)C)C(=O)N[C@@H](Cc1ccccc1)[C@@H](O)C(=O)Nc1cccc(C(=O)O)c1 |  |
| 96.7 | 57.6 | CC(C)C[C@H](NC(=O)[C@@H](NC(=O)[C@@H](N)CNC(=O)C(=O)O)C(C)C)C(=O)N[C@@H](Cc1ccccc1)[C@@H](O)C(=O)N[C@@H](CC(=O)O)C(=O)N[C@@H](C)C(=O)N[C@@H](CCC(=O)O)C(=O)O (H-[Dap](Oxalyl)VL[β3hPhe(2R-OH)]DAE-OH) | 84 |
| 75.2 |  | CC(C)C[C@H](NC(=O)[C@@H](NC(=O)[C@H](CN)NC(=O)C(=O)O)C(C)C)C(=O)N[C@@H](Cc1ccccc1)[C@@H](O)C(=O)N[C@@H](CC(=O)O)C(=O)N[C@@H](C)C(=O)N[C@@H](CCC(=O)O)C(=O)O (Oxalyl-[Dap]VL[β3hPhe(2R-OH)]DAE-OH) |  |
|  |  | CC(C)C[C@H](NC(=O)[C@@H](NC(=O)[C@@H](N)CNC(=O)c1nnn[nH]1)C(C)C)C(=O)N[C@@H](Cc1ccccc1)[C@@H](O)C(=O)Nc1cc(C(=O)O)cc(C(=O)O)c1 | 3.9 |
| 93 | 73.1 | CC(C)C[C@H](NC(=O)[C@@H](NC(=O)[C@@H](N)CNC(=O)c1nn[nH]n1)C(C)C)C(=O)N[C@@H](Cc1ccccc1)[C@@H](O)C(=O)N[C@@H](CC(=O)O)C(=O)N[C@@H](C)C(=O)N[C@@H](CCC(=O)O)C(=O)O (H-[Dap](Tetrazole5carbonyl)VL[β3hPhe(2R-OH)]DAE-OH) |  |

| SMILES | inhibition (Beta-secretase 1 [1]) [%] | inhibition (Beta-secretase 1 [3]) [%] | IC50 (Beta-secretase 1 [2]) [nM] |
| --- | --- | --- | --- |
| CC(C)C[C@H](NC(=O)[C@@H](NC(=O)[C@@H](N)CNC(=O)C(=O)O)C(C)C)C(=O)N[C@@H](Cc1ccccc1)[C@@H](O)C(=O)Nc1cc(C(=O)O)cc(C(=O)O)c1 | 99.8 | 96.7 | 4.7 |
| CC(C)C[C@H](NC(=O)[C@@H](NC(=O)[C@@H](N)CNC(=O)c1nn[nH]n1)C(C)C)C(=O)N[C@@H](Cc1ccccc1)[C@@H](O)C(=O)Nc1cc(C(=O)O)cc(C(=O)O)c1 | 100 | 98.1 |  |
| CC(C)C[C@H](NC(=O)[C@@H](NC(=O)[C@@H](N)CNC(=O)C(=O)O)C(C)C)C(=O)N[C@@H](Cc1ccccc1)[C@@H](O)C(=O)Nc1cccc(C(=O)O)c1 | 98.4 | 85.5 | 16 |
